Test results from EPA's ToxValDB 9.5 (doi:10.2903/j.efsa.2009.222r).
Converted amounts (≈) assume the structure as drawn.

Key:
Aphidius rhopalosiphi = assay: LR50; higher = less toxic; conditions: acute; duration: 48 hours; mortality
Apis mellifera = conditions: acute; duration: 48 hours; dermal; mortality
Lepomis macrochirus = conditions: acute; duration: 96 hours; mortality
Pimephales promelas = conditions: chronic/long-term
Daphnia magna = conditions: chronic/long-term; duration: 21 days
Tagia sp. = conditions: acute; duration: 14 days; mortality
Avena sativa = conditions: acute; duration: 21 days; other

In the case of `CNC(=O)ON=C(C)SC` [Methomyl], the LR50 (Aphidius rhopalosiphi) is reported as 0.25 g/ha, the LD50 (Apis mellifera) is reported as 0.16 µg/piece and the LC50 (Lepomis macrochirus) is reported as 0.63 µg/mL (≈ 3.88 µM). It also gave an LC50 (Colinus virginianus; acute, oral, diet, mortality) greater than 519 mg/kg-day, an LD50 (Colinus virginianus; acute, oral, mortality) of 24.2 mg/kg-day and an NOEC (Colinus virginianus; reproduction developmental) of 20.3 mg/kg-day. For the same compound, the NOEC (Pimephales promelas) was 0.073 mg/L, the NOEC (Daphnia magna) was 0.0016 mg/L and the LC50 (Tagia sp.) was 19 mg/kg. The NOAEL (Rattus norvegicus; acute, clinical chemistry) was 0.25 mg/kg-day, the LD50 (Rattus norvegicus; acute, oral, mortality) was 27.4 mg/kg-day and the NOAEL (Rattus norvegicus; reproduction developmental, body weight) was 4.6 mg/kg-day. It also gave an LEL (Avena sativa) of 2250 g/ha.
